The results in this text go back to ChEMBL document CHEMBL1151438, “In vitro resistance study of rupintrivir, a novel inhibitor of human rhinovirus 3C protease” (Antimicrob Agents Chemother, 2007).

One assay relates to rhinovirus A39. In words: Antiviral activity against HRV39 with 3C protease S105T, N130K, L136F mutation infected in human H1-HeLa cells assessed as virus-induced cytopathic effect after 9 passages for 50 days by XTT assay. It counts as functional, organism-based. As to conditions: Rhinovirus A.
For assay [1], the system named is rhinovirus A2. In words: Antiviral activity against HRV2 infected in human H1-HeLa cells assessed as virus-induced cytopathic effect after 3 passages for 17 days by XTT assay. The class given is functional, organism-based. The settings on record: Rhinovirus A, 408 h.
The test system of assay [2] is rhinovirus A2. In words: Ratio of EC50 for HRV2 infected in human H1-HeLa cells after 1 passage for 6 days to EC50 for wild type HRV2 infected in human H1-HeLa cells. The class given is functional.
The subject of assay [3] is rhinovirus B14. In words: Antiviral activity against HRV14 with 3C protease T129A mutation infected in human H1-HeLa cells assessed as virus-induced cytopathic effect after 3 days by XTT assay. The class given is functional, organism-based. As to conditions: Rhinovirus B, 72 h.
In assay [4] the test system is rhinovirus B14. In words: Ratio of EC50 for HRV14 with 3C protease T129A mutation infected in human H1-HeLa cells to EC50 for wild type HRV14 infected in human H1-HeLa cells. The class given is functional.
The test system of assay [5] is Human rhinovirus sp. In words: Ratio of EC50 for HRV Hanks infected in human H1-HeLa cells after 9 passage for 59 days to EC50 for wild type HRV Hanks infected in human H1-HeLa cells. It counts as functional.
For assay [6], the system named is rhinovirus A2. In words: Antiviral activity against wild type HRV2 infected in human H1-HeLa cells assessed as virus-induced cytopathic effect after 3 days by XTT assay. It counts as functional, organism-based. The settings on record: Rhinovirus A, 72 h.
In assay [7] the test system is Human rhinovirus sp. In words: Ratio of EC50 for HRV Hanks infected in human H1-HeLa cells after 6 passage for 40 days to EC50 for wild type HRV Hanks infected in human H1-HeLa cells. It counts as functional.
The test system of assay [8] is rhinovirus A2. In words: Ratio of EC50 for HRV2 with 3C protease N165T mutation infected in human H1-HeLa cells after 6 passages for 37 days to EC50 for wild type HRV2 infected in human H1-HeLa cells. It counts as functional.
The test system of assay [9] is rhinovirus B14. In words: Antiviral activity against HRV14 with 3C protease T129A, T131A, T143P, Y139Y/H mutation infected in human H1-HeLa cells assessed as virus-induced cytopathic effect after 10 passages for 55 days by XTT assay. The class given is functional, organism-based. As to conditions: Rhinovirus B.
Assay [10] deals with rhinovirus B14. In words: Ratio of EC50 for HRV14 infected in human H1-HeLa cells after 2 passages for 11 days to EC50 for wild type HRV14 infected in human H1-HeLa cells. It counts as functional.
Assay [11] deals with rhinovirus B14. In words: Antiviral activity against 0.02 MOI wild type HRV14 infected in human H1-HeLa cells assessed as cell killing after 3 days by XTT assay. It counts as functional.
Assay [12] has as its system rhinovirus B14. In words: Ratio of EC50 for HRV14 infected in human H1-HeLa cells after 1 passage for 6 days to EC50 for wild type HRV14 infected in human H1-HeLa cells. The class given is functional.
Assay [13] relates to rhinovirus A2. In words: Antiviral activity against HRV2 with 3C protease N165T mutation infected in human H1-HeLa cells assessed as virus-induced cytopathic effect after 6 passages for 37 days by XTT assay. It counts as functional, organism-based. As to conditions: Rhinovirus A.

With `CCOC(=O)/C=C/[C@H](C[C@@H]1CCNC1=O)NC(=O)[C@@H](CC(=O)[C@@H](NC(=O)c1cc(C)on1)C(C)C)Cc1ccc(F)cc1` [RUPINTRIVIR], the EC50 amounted to 94 nM with rhinovirus A39; 34 nM in the assay on rhinovirus A2 [1]; 14 nM in the assay with rhinovirus B14 [3]; 30 nM in the assay on rhinovirus A2 [6]; 324 nM in the assay on rhinovirus B14 [9]; 67 nM in the assay with rhinovirus A2 [13]. For the same compound, the “Ratio EC50” value in the assay on rhinovirus A2 [2] came out at 1; in the assay on rhinovirus B14 [4], 1; in the assay with Human rhinovirus sp. [5], 3; in the assay with Human rhinovirus sp. [7] it was 3; with rhinovirus A2 [8] it was 2; in the assay with rhinovirus B14 [10], 3.5. The “Ratio EC50” value in the assay with rhinovirus B14 [12] turned out to be 3.5. Also, the Activity in the assay on rhinovirus B14 [11] was 90.2%.
